Source: patent US11674959B2, “Methods for identifying and preparing pharmaceutical agents for activating Tie1 and/or Tie2 receptors” (The Johns Hopkins University, priority 2017, dated 2023)

Legend:
Tie2 / α5 integrin = target: T1, Tie2 / α5 integrin (Homo sapiens, UniProt P08648); experiment: Tie2 immunoprecipitation from fractionated lysates, blotted for α5 integrin; format: cell-based; details: peptide-treated insoluble fraction; with 200 ng/ml Ang2 or no growth factor
T1 construct: host or cells: human dermal microvascular endothelial cells (MECs)
Method: Finally, it was determined whether or not the α5 integrin subunit remains complexed with Tie2 following its disassociation with β1 integrin.
(§1) The isolation of Triton X-100 soluble and insoluble fractions was performed using modifications to previously-described procedures (see, e.g., Lampugnani et al., J Cell Biol. 1995; 129(1):203-217). FN1-coated six-well plates were seeded with 2.5×10^6 cells and cultured for forty-eight hours, as described above. The cultures were then serum starved for ninety minutes in EBM-2 media, treated with 100 μM AXT107 or DMSO vehicle, and fifteen minutes with 1 mM sodium vanadate. The cells were then stimulated with either 100 ng/ml VEGFA, 400 ng/ml Ang2, or PBS for fifteen minutes. The plates were then transferred to ice and washed twice with cold dPBS containing Ca^2+ and Mg^2+ and twice with EBM-2 media. The media was then removed and the cells incubated for thirty minutes on ice, at 4° C. in 200 μl of Triton X-100 extraction buffer (10 mM Tris-HCl, pH 7.5; 150 mM NaCl; 2 mM CaCl2; 1% NP-40; 1% […]; and a protease inhibitor cocktail (Cell Signaling, Cat #: 5871)) with occasional agitation. The extraction buffer was gently collected and centrifuged at 12,000×g for five minutes. […] Samples were analyzed by western blot as described above. […]

Tie2 = Tie2 immunoprecipitation from fractionated MEC lysates, blotted for phospho-Tie2; format: cell-based, human; details: Ang2 with or without AXT107; soluble vs insoluble fractions
Method: Next, experiments were performed to determine whether or not relocation of Tie2 to the insoluble fraction was important for Tie2's activation by Ang2. Tie2 was immunoprecipitated from fractionated MEC lysates exposed to Ang2 with or without AXT107 and then immunoblotted for phospho-Tie2.
as §1, with “agitation.” for “agitation. The extraction buffer was gently collected and centrifuged at 12,000×g for five minutes.”

MEC monolayers = experiment: FITC Transwell permeability assay; format: cell-based, human
Method: The integrity of these junctions is also important for the regulation of monolayer permeability by controlling the size of intercellular openings. The effect of the AXT107 on EC permeability was further investigated by the transendothelial diffusion of FITC-labeled dextran across MEC monolayers seeded onto permeable Transwell® substrates.
Human dermal microvascular endothelial cells (Lonza) were maintained at 37° C. and 5% CO2 in EBM-2MV medium (Lonza) and used between passages two through seven. Where applicable, cells were serum starved in EBM-2 medium (Lonza) with no supplements. For FITC-Dextran permeability assays phenol red-free media were used to avoid auto-fluorescence. AXT107 were manufactured at New England Peptide by […], lyophilized, and dissolved in 100% DMSO.
Transwell, twenty-four-well inserts (Corning) were coated with 7.5 μg/cm^2 FN1 for two hours at 37° C., aspirated, and then dried for thirty minutes at room temperature. Wells were then seeded with 7.5×10^4 MECs in 100 μl of EBM-2 media (without phenol red) and allowed to settle for thirty minutes at room temperature. 1 ml of EGM-2 media was then added to the bottom chamber and an additional 200 μl to the top chamber. The plate was incubated for twenty-four hours at 37° C. after which the media was aspirated and an additional 7.5×10^4 MECs were plated in each well as described above. After forty-eight hours at 37° C., the media was aspirated from both chambers and the cells were washed twice in dPBS containing Ca^2+ and Mg^2+, once with EBM-2 media (without phenol red) and serum starved in EBM-2 media applied to both chambers for two hours at 37° C. After this incubation, 100 μM AXT107 or an equivalent amount of DMSO vehicle was added and incubated for an additional ninety minutes. In the top chamber, the cells were then treated with 200 ng/ml Ang2, 100 ng/ml VEGFA, both, or PBS control and in the bottom chamber, the cells were then treated with 25 μg/ml FITC-Dextran (40 kDa MW). AXT107 was also added in both chambers to maintain a concentration of 100 μM. After three hours, 10 μl was removed from the top chamber of each well and mixed with 90 μl of water in a clear bottom, 96-well plate. Fluorescence values for each sample were calculated using a Perkin Elmer plate reader.

T1 sequence (P08648 42-894 limits assumed): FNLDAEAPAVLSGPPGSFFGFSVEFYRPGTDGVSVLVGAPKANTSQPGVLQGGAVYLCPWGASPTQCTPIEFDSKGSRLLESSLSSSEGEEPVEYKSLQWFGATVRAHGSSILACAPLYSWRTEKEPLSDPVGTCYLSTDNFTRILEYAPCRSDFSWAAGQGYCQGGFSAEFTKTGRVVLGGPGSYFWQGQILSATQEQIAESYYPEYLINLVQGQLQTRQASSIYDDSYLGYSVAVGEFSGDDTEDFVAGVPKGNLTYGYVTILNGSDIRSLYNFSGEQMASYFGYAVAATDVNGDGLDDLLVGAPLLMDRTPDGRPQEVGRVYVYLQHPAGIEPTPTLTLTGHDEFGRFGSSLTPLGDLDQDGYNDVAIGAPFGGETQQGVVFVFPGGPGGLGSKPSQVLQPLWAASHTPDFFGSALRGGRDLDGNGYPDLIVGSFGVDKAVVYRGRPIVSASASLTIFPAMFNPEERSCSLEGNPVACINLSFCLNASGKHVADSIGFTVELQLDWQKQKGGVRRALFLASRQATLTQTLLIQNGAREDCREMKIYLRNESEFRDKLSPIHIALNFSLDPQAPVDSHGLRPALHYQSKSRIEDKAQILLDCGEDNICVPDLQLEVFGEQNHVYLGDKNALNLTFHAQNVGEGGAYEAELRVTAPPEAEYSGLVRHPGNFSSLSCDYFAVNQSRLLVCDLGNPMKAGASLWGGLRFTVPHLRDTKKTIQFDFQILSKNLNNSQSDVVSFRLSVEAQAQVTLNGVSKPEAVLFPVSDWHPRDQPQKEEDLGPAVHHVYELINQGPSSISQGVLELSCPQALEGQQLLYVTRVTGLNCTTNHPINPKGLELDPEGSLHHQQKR
T1 sequence (P08648 895-1049 limits assumed): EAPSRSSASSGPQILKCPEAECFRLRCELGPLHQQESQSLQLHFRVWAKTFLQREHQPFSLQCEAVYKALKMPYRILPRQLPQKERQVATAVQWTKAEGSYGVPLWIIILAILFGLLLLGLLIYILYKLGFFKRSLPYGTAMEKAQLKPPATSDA
T1 sequence (Q02763 23-1124 partner): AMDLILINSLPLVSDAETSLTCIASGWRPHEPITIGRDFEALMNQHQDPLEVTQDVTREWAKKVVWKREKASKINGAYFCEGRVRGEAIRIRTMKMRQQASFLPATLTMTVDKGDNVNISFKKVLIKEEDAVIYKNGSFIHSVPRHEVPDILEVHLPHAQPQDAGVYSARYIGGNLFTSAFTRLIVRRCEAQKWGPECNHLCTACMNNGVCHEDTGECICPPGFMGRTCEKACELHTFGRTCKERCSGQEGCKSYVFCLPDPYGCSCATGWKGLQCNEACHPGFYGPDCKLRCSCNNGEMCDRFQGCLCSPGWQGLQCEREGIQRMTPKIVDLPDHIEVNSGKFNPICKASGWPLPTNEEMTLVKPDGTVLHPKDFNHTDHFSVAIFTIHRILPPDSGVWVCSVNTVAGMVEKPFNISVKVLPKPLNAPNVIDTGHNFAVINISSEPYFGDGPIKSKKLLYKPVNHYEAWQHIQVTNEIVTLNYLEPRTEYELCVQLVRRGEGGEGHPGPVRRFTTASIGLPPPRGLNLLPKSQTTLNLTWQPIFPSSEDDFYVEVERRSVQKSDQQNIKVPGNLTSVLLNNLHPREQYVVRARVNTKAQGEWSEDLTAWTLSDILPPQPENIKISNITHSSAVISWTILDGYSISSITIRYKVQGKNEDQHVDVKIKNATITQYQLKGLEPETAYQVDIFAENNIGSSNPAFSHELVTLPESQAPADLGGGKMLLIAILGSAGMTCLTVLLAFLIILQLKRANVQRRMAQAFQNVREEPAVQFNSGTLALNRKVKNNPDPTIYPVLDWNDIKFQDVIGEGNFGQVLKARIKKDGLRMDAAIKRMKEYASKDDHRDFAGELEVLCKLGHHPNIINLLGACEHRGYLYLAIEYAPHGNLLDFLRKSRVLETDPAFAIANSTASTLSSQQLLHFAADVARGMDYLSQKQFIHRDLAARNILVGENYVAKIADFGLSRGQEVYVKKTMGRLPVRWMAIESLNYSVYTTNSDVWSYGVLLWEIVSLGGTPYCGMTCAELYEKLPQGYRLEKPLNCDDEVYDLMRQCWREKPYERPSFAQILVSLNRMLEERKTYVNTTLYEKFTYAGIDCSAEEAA

## LRRFSTAPFAFIDINDVINF [AXT107]
Tie2 / α5 integrin
  α5 integrin complexed with Tie2: α5 integrin was observed in the peptide-treated, insoluble fraction following immunoprecipitation of Tie2
Tie2
  Tie2 phosphorylation by fraction: phosphorylation was observed only in the insoluble fractions of peptide-treated samples
MEC monolayers; 100 μM AXT107 pre-incubation + Ang2, vs growth factor alone
  FITC-dextran diffusion into the top chamber: significant decrease in FITC-dextran diffusion into the top chamber
MEC monolayers; 100 μM AXT107 pre-incubation + Ang2 in combination with VEGF, vs growth factors alone
  FITC-dextran diffusion into the top chamber: significant decrease in FITC-dextran diffusion into the top chamber
MEC monolayers; VEGF in the presence vs absence of peptide
  FITC-dextran diffusion into the top chamber: similar, but non-significant trend
MEC monolayers; single agent alone, FITC-Dextran 40 kDa, three hours
  FITC-dextran diffusion across the monolayer, agent alone: influenced FITC-dextran diffusion across the monolayer
